The results in this text go back to patent US10653647B2 (priority 2003, dated 2020).

The subject of this assay is terminal sensory nerve fibers of rat vulva. The assay can be described thus: reduction of nerve fiber density in rat vulva, PGP 9.5 immunostaining. Type of assay: in vivo. As to conditions: 33 μL, 1% (w/v) in DGME applied for 20 minutes, Day 7, statistical significance not established. As for the experimental part: Sixty female retired breeder Sprague-Dawley rats were divided into 6 groups. On day 0, rats were anesthetized with isoflurane anesthetic gas and then LMX5® anesthetic cream was applied to the entire vulvar area of each rat at least 30 minutes. The test formulations were applied using a micropipette to dispense 33 μL of each formulation. The formulations applied were diethylene glycol monoethyl ether (DGME) alone; 0.01% capsaicin (w/v) in DGME; 0.1% capsaicin (w/v) in DGME; 1% resiniferatoxin (w/v) in DGME; 3% capsaicin (w/v) in 90% (v/v) DGME and 10% (v/v) DMSO, a 10% capsaicin (w/v) in DGME. The formulations were left on for 20 minutes with the exception of 10% capsaicin (w/v) in DGME which was left on for 5 minutes. The remaining formulation was removed using a cleansing gel (89.08% PEG 300, 1.0% Carbopol 1382™, 0.02% butylated hydroxyanisole, 0.01% disodium edentate, pH 6.5). […] The tissues were evaluated by a board certified veterinary pathologist for (1) any and all lesions, with particular attention to inflammation and any microvascular changes, and (2) the presence, absence and any abnormalities in the architecture of the terminal nerve sensory nerve fibers. For each specimen, nerve fiber functionality was determined by counting the number of nerve fibers observed in at least four microscopical fields (each circular microscopical field has a radius of 90 μm) and then averaged. […]

For the molecule `C=C(C)[C@]12C[C@@H](C)[C@@]34O[C@](Cc5ccccc5)(O[C@@H]1[C@@H]3C=C(COC(=O)Cc1ccc(O)c(OC)c1)C[C@]1(O)C(=O)C(C)=C[C@@H]41)O2` [resiniferatoxin], the “decrease in nerve fiber density” value came to 28%.
